Test results from patent US12630547B2, “RAS protein degraders, pharmaceutical compositions thereof, and their therapeutic applications” (BioTheryX, Inc., priority 2019, dated 2026).

Experiments:
Format in all cases: cell-based
[1] = system: MOLM-13 cells; assay: Cell viability assay (CELLTITER-GLO), MOLM-13 cells; conditions: Homo sapiens, MOLM-13, 72 h; Table 2; compound at 10 μM, 3 days; read-out: Effect on MOLM-13 cell viability (% DMSO)
Procedure, shortened: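 MV-4-11 and MOLM-13 cells in RPMI 1640/10% FBS were seeded at 4,000 cells/well and exposed to compound (10 μM or 1 μM) or DMSO for 3 days at 37 °C, 5% CO2. CellTiter-Glo luminescence gave viability as % DMSO, binned into ranges A (<10%) through D (≥50%).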

[2] = system: H358 cells; assay: Cell viability assay (CELLTITER-GLO), H358 cells; conditions: Table 4; 3 days
Procedure, shortened: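 H358 cells (RPMI 1640, 10% FBS), 4,000 per well, exposed to compound for 3 days at 37 °C, 5% CO2; viability by CellTiter-Glo luminescence. Single-dose viability as % DMSO at 10 or 1 μM, binned A (<10%) to D (≥50%); IC50 binned A (≤1 μM) to D (>10 μM).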

[3] = system: H23 cells; assay: Cell viability assay (CELLTITER-GLO), H23 cells; conditions: Table 4; 3 days
Procedure, shortened: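 H23 cells in RPMI 1640 with 10% FBS, 4,000 cells/well, exposed to compound or DMSO for 3 days at 37° C, 5% CO2. Viability read by CellTiter-Glo luminescence after 10 min. IC50 reported in potency bins.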

Compound: CCC(=O)N1CCN(c2ncnc3c(F)c(-c4c(F)cccc4OCCCCCCCN4CCC(c5scc6c5CN(C5CCC(=O)NC5=O)C6=O)CC4)c(Cl)cc23)CC1 (stereo not drawn) [Compound 71, 3-(1-(1-(7-(2-(6-chloro-8-fluoro-4-(4-propionylpiperazin-1-yl)quinazolin-7-yl)-3-fluorophenoxy)heptyl)piperidin-4-yl)-4-oxo-4H-thieno[3,4-c]pyrrol-5(6H)-yl)piperidine-2,6-dione]
- viability at 10 µM [1]: < 10%
- Inhibition of H358 cells, IC50 (class) [2]: B′
- Inhibition of H23 cells, IC50 (class) [3]: B′

Compound: C=CC(=O)N1CCN(c2nc(=O)n(-c3ccccc3C(C)C)c3nc(-c4c(F)cccc4OCCCCCCCN4CCC(c5cc(F)cc6c5CN(C5CCC(=O)NC5=O)C6=O)CC4)c(F)cc23)[C@@H](C)C1 (stereo partly drawn) [Compound 72, 3-(4-(1-(7-(2-(4-((S)-4-Acryloyl-2-methylpiperazin-1-yl)-6-fluoro-1-(2-isopropylphenyl)-2-oxo-1,2-dihydropyrido[2,3-d]pyrimidin-7-yl)-3-fluorophenoxy)heptyl)piperidin-4-yl)-6-fluoro-1-oxoisoindolin-2-yl)piperidine-2,6-dione]
- viability at 10 µM [1]: < 10%
- Inhibition of H358 cells, IC50 (class) [2]: A′
- Inhibition of H23 cells, IC50 (class) [3]: B′

Compound: CCC(=O)N1CCN(c2nc(=O)n(-c3ccccc3C(C)C)c3nc(-c4c(F)cccc4OCCCCCCCN4CCC(c5cc(F)cc6c5CN(C5CCC(=O)NC5=O)C6=O)CC4)c(F)cc23)[C@@H](C)C1 (stereo partly drawn) [Compound 73, 3-(6-Fluoro-4-(1-(7-(3-fluoro-2-(6-fluoro-1-(2-isopropylphenyl)-4-((S)-2-methyl-4-propionylpiperazin-1-yl)-2-oxo-1,2-dihydropyrido[2,3-d]pyrimidin-7-yl)phenoxy)heptyl)piperidin-4-yl)-1-oxoisoindolin-2-yl)piperidine-2,6-dione]
- viability at 10 µM [1]: 10 to 25%
- Inhibition of H358 cells, IC50 (class) [2]: B′
- Inhibition of H23 cells, IC50 (class) [3]: B′

Compound: C=CC(=O)N1CCN(c2nc(OCCCCCCCN3CCC(c4cc(F)cc5c4CN(C4CCC(=O)NC4=O)C5=O)CC3)nc3c2CCN(c2cc(O)cc4ccccc24)C3)CC1 (stereo not drawn) [Compound 75, 3-(4-(1-(7-((4-(4-Acryloylpiperazin-1-yl)-7-(3-hydroxynaphthalen-1-yl)-5,6,7,8-tetrahydropyrido[3,4-d]pyrimidin-2-yl)oxy)heptyl)piperidin-4-yl)-6-fluoro-1-oxoisoindolin-2-yl)piperidine-2,6-dione]
- viability at 10 µM [1]: 25 to 50%
- Inhibition of H358 cells, IC50 (class) [2]: C′
- Inhibition of H23 cells, IC50 (class) [3]: B′

Compound: C=CC(=O)N1CCN(c2ncnc3c(F)c(-c4c(F)cccc4OCCCCCCCCCCC(=O)N[C@H](C(=O)N4C[C@H](O)C[C@H]4C(=O)NCc4ccc(-c5scnc5C)cc4)C(C)(C)C)c(Cl)cc23)CC1 [Compound 76, (2S,4R)-1-((2S)-2-(11-(2-(4-(4-Acryloylpiperazin-1-yl)-6-chloro-8-fluoroquinazolin-7-yl)-3-fluorophenoxy)undecanamido)-3,3-dimethylbutanoyl)-4-hydroxy-N-(4-(4-methylthiazol-5-yl)benzyl)pyrrolidine-2-carboxamide]
- viability at 10 µM [1]: < 10%
- Inhibition of H358 cells, IC50 (class) [2]: B′
- Inhibition of H23 cells, IC50 (class) [3]: B′

Compound: CCC(=O)N1CCN(c2ncnc3c(F)c(-c4c(F)cccc4OCCCCCCCCCCC(=O)N[C@H](C(=O)N4C[C@H](O)C[C@H]4C(=O)NCc4ccc(-c5scnc5C)cc4)C(C)(C)C)c(Cl)cc23)CC1 [Compound 77, (2S,4R)-1-((2S)-2-(11-(2-(6-Chloro-8-fluoro-4-(4-propionylpiperazin-1-yl)quinazolin-7-yl)-3-fluorophenoxy)undecanamido)-3,3-dimethylbutanoyl)-4-hydroxy-N-(4-(4-methylthiazol-5-yl)benzyl)pyrrolidine-2-carboxamide]
- viability at 10 µM [1]: ≥ 50%
- Inhibition of H358 cells, IC50 (class) [2]: C′
- Inhibition of H23 cells, IC50 (class) [3]: D′

Compound: CCC(=O)N1CCN(c2ncnc3c(F)c(-c4c(F)cccc4OCCCCCCC(=O)N[C@H](C(=O)N4C[C@H](O)C[C@H]4C(=O)NCc4ccc(-c5scnc5C)cc4)C(C)(C)C)c(Cl)cc23)CC1 [Compound 78, (2S,4R)-1-((2S)-2-(7-(2-(6-Chloro-8-fluoro-4-(4-propionylpiperazin-1-yl)quinazolin-7-yl)-3-fluorophenoxy)heptanamido)-3,3-dimethylbutanoyl)-4-hydroxy-N-(4-(4-methylthiazol-5-yl)benzyl)pyrrolidine-2-carboxamide]
- viability at 10 µM [1]: < 10%
- Inhibition of H358 cells, IC50 (class) [2]: B′
- Inhibition of H23 cells, IC50 (class) [3]: C′

Compound: O=C1CCC(N2Cc3c(cc(F)cc3C3CCN(CCCCCCCOc4cccc(F)c4-c4c(Cl)cc5c(N6CCN(C(=O)C7CCNC7)CC6)ncnc5c4F)CC3)C2=O)C(=O)N1 (stereo not drawn) [Compound 79, 3-(4-(1-(7-(2-(6-Chloro-8-fluoro-4-(4-(pyrrolidine-3-carbonyl)piperazin-1-yl)quinazolin-7-yl)-3-fluorophenoxy)heptyl)piperidin-4-yl)-6-fluoro-1-oxoisoindolin-2-yl)piperidine-2,6-dione]
- viability at 10 µM [1]: < 10%
- Inhibition of H358 cells, IC50 (class) [2]: B′
- Inhibition of H23 cells, IC50 (class) [3]: B′

Compound: CC(C)/C=C(\C#N)C(=O)N1CCN(c2ncnc3c(F)c(-c4c(F)cccc4OCCCCCCCN4CCC(c5cc(F)cc6c5CN(C5CCC(=O)NC5=O)C6=O)CC4)c(Cl)cc23)CC1 (stereo not drawn) [Compound 80, (E)-2-(4-(6-Chloro-7-(2-((7-(4-(2-(2,6-dioxopiperidin-3-yl)-6-fluoro-1-oxoisoindolin-4-yl)piperidin-1-yl)heptyl)oxy)-6-fluorophenyl)-8-fluoroquinazolin-4-yl)piperazine-1-carbonyl)-4-methylpent-2-enenitrile]
- viability at 10 µM [1]: < 10%
- Inhibition of H358 cells, IC50 (class) [2]: B′
- Inhibition of H23 cells, IC50 (class) [3]: B′

Compound: O=C1CCC(N2Cc3c(cc(F)cc3C3CCN(CCCCCCCOc4cccc(F)c4-c4c(Cl)cc5c(N6CCN(C(=O)C7COC7)CC6)ncnc5c4F)CC3)C2=O)C(=O)N1 (stereo not drawn) [Compound 81, 3-(4-(1-(7-(2-(6-Chloro-8-fluoro-4-(4-(oxetane-3-carbonyl)piperazin-1-yl)quinazolin-7-yl)-3-fluorophenoxy)heptyl)piperidin-4-yl)-6-fluoro-1-oxoisoindolin-2-yl)piperidine-2,6-dione]
- viability at 10 µM [1]: ≥ 50%
- Inhibition of H358 cells, IC50 (class) [2]: C′
- Inhibition of H23 cells, IC50 (class) [3]: C′

Compound: C=C(F)C(=O)N1CCN(c2ncnc3c(F)c(-c4c(F)cccc4OCCCCCCCN4CCC(c5cc(F)cc6c5CN(C5CCC(=O)NC5=O)C6=O)CC4)c(Cl)cc23)CC1 (stereo not drawn) [Compound 82, 3-(4-(1-(7-(2-(6-Chloro-8-fluoro-4-(4-(2-fluoroacryloyl)piperazin-1-yl)quinazolin-7-yl)-3-fluorophenoxy)heptyl)piperidin-4-yl)-6-fluoro-1-oxoisoindolin-2-yl)piperidine-2,6-dione]
- viability at 10 µM [1]: < 10%
- Inhibition of H358 cells, IC50 (class) [2]: B′
- Inhibition of H23 cells, IC50 (class) [3]: B′

Compound: NC(=O)N1CCN(c2ncnc3c(F)c(-c4c(F)cccc4OCCCCCCCN4CCC(c5cc(F)cc6c5CN(C5CCC(=O)NC5=O)C6=O)CC4)c(Cl)cc23)CC1 (stereo not drawn) [Compound 83, 4-(6-Chloro-7-(2-((7-(4-(2-(2,6-dioxopiperidin-3-yl)-6-fluoro-1-oxoisoindolin-4-yl)piperidin-1-yl)heptyl)oxy)-6-fluorophenyl)-8-fluoroquinazolin-4-yl)piperazine-1-carboxamide]
- viability at 10 µM [1]: < 10%
- Inhibition of H358 cells, IC50 (class) [2]: B′
- Inhibition of H23 cells, IC50 (class) [3]: B′

Compound: CCC(=O)N1CCN(c2ncnc3c(F)c(-c4c(F)cccc4OCCC4CCC(CCN5CCC(c6cc(F)cc7c6CN(C6CCC(=O)NC6=O)C7=O)CC5)CC4)c(Cl)cc23)CC1 (stereo not drawn) [Compound 84, 3-(4-(1-(2-(4-(2-(2-(6-Chloro-8-fluoro-4-(4-propionylpiperazin-1-yl)quinazolin-7-yl)-3-fluorophenoxy)ethyl)cyclohexyl)ethyl)piperidin-4-yl)-6-fluoro-1-oxoisoindolin-2-yl)piperidine-2,6-dione]
- viability at 10 µM [1]: < 10%
- Inhibition of H358 cells, IC50 (class) [2]: B′
- Inhibition of H23 cells, IC50 (class) [3]: B′

Compound: CCC(=O)N1CCN(c2ncnc3c(F)c(-c4c(F)cccc4OCCCCCCCN4CCC(c5cc(F)cc6c5CN(C5CCC(=O)NC5=O)C6=O)CC4)c(Cl)cc23)[C@@H](C)C1 (stereo partly drawn) [Compound 85, 3-(4-(1-(7-(2-(6-Chloro-8-fluoro-4-((S)-2-methyl-4-propionylpiperazin-1-yl)quinazolin-7-yl)-3-fluorophenoxy)heptyl)piperidin-4-yl)-6-fluoro-1-oxoisoindolin-2-yl)piperidine-2,6-dione]
- viability at 10 µM [1]: < 10%
- Inhibition of H358 cells, IC50 (class) [2]: B′
- Inhibition of H23 cells, IC50 (class) [3]: B′

Compound: CCC(=O)N1CCN(c2ncnc3c(F)c(-c4c(F)cccc4OCCCCCCCN4CCCC(c5cc(F)cc6c5CN(C5CCC(=O)NC5=O)C6=O)C4)c(Cl)cc23)CC1 (stereo not drawn) [Compound 87, 3-(4-(1-(7-(2-(6-Chloro-8-fluoro-4-(4-propionylpiperazin-1-yl)quinazolin-7-yl)-3-fluorophenoxy)heptyl)piperidin-3-yl)-6-fluoro-1-oxoisoindolin-2-yl)piperidine-2,6-dione]
- viability at 10 µM [1]: < 10%
- Inhibition of H358 cells, IC50 (class) [2]: B′
- Inhibition of H23 cells, IC50 (class) [3]: B′
